PMC4924682, “Monoamine oxidase A (MAO A) inhibitors decrease glioma progression” (Oncotarget, 2016)

Columns and labels:
[1] = target: T1, Monoamine Oxidase A (MAO A) (Homo sapiens, UniProt P21397); experiment: radioassay of […]-5-HT turnover in U251S and U251R human glioma cells; type: cell-based
T1 construct: gene MAOA
T1 sequence (P21397 1-527): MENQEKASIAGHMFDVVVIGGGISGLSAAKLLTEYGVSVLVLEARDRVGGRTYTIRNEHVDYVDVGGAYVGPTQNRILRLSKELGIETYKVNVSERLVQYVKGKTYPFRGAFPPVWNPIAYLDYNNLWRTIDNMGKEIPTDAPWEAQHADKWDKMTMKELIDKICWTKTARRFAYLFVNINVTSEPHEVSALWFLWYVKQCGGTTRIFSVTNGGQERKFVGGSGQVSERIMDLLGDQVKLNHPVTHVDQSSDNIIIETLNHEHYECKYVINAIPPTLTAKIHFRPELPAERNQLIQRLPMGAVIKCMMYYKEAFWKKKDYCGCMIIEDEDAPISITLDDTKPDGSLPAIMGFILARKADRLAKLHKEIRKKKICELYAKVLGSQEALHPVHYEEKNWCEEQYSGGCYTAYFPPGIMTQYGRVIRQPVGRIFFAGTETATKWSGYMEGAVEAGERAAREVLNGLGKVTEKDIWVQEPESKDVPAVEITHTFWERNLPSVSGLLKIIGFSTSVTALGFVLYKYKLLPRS

[2] = target: T2, Monoamine Oxidase A (MAO A) (Mus musculus, UniProt Q64133); experiment: radioassay of […]-5-HT turnover in GL26 mouse glioma cells; type: cell-based
T2 construct: gene Maoa
T2 sequence (Q64133 1-526): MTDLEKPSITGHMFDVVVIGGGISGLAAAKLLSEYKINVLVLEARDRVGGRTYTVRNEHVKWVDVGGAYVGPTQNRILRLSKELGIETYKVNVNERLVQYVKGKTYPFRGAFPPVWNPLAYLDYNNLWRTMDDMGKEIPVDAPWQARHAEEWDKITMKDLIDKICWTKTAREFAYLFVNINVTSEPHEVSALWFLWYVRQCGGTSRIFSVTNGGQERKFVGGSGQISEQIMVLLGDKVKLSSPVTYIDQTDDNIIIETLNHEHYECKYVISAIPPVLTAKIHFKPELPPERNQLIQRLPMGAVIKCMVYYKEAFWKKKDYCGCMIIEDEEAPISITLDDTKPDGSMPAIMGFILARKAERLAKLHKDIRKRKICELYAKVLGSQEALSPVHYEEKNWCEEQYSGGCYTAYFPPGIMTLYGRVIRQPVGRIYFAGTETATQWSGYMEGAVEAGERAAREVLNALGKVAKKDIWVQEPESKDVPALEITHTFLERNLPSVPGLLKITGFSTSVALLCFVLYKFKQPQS

## NCCc1c[nH]c2ccc(O)cc12 [serotonin]
[1]
  radioassay of 14C-5-HT turnover in U251S and U251R human glioma cells: MAO A catalytic activity was determined in human and mouse glioma cell lines using serotonin as the substrate
[2]
  radioassay of 14C-5-HT turnover in GL26 mouse glioma cells: MAO A catalytic activity was determined in human and mouse glioma cell lines using serotonin as the substrate
